Test results from US10907153B2, “Treatment of heart disease by inhibtion of the action of muscle A-kinase anchoring protein (mAKAP)” (priority 2017, dated 2021).

Assays:
[1] = system: Noonan syndrome mouse model; conditions: Wu 2011; cited from earlier work
[2] = system: neonatal rat ventricular myocytes; experiment: Hypertrophy of cultured neonatal rat ventricular myocytes (cross-section area, ANF expression); assay type: cell-based; conditions: for agonist-induced myocyte hypertrophy: pan-RSK inhibitors, neonatal myocytes
Protocol: Neonatal rat myocytes isolation and culture: 1-3 day old Sprague-Dawley rats were decapitated and the excised hearts placed in 1×ADS Buffer (116 mmol/L NaCl, 20 mmol/L HEPES, 1 mmol/L NaH2PO4, 5.5 mmol/L glucose, 5.4 mmol/L KCl, 0.8 mmol/L MgSO4, pH 7.35). The atria were carefully removed and the blood washed away. The ventricles were minced and incubated with 15 mL 1×ADS Buffer containing 3.3 mg type II collagenase (Worthington, 230 U/mg) and 9 mg Pancreatin (Sigma) at 37° C. while shaking at 80 RPM. After 15 minutes, the dissociated cardiac myocytes were separated by centrifugation at 50×g for 1 minute, resuspended in 4 mL horse serum and incubated 37° C. with occasional agitation. The steps for enzymatic digestion and isolation of myocytes were repeated 10-12 times to maximize yield. The myocytes were pooled and spun down again at 50×g for 2 minutes and resuspended in Maintenance Medium (DMEM:M199, 4:1) supplemented with 10% horse serum and 5% fetal bovine serum. To remove any contaminating fibroblasts, the cells were pre-plated for 1 hour before plating on gelatin-coated tissue culture plasticware. This procedure yields >90% pure cardiac myocytes. After 1 day in culture, the media was changed to maintenance medium containing 0.1 mmol/L bromodeoxyuridine to suppress fibroblast growth.
Experiments were initiated 1 day after myocyte isolation. Adenoviral infection was performed by addition of adenovirus (multiplicity of infection=5-50) to the media. Plasmids and siRNA oligonucleotides were transfected using Transfast (Promega) and Dharmafect (Thermofisher), respectively, as recommended by the manufacturers using cells cultured in maintenance medium supplemented with 4% horse serum. Starting the day after gene transduction, the cells were treated for as long as 2 days, as indicated for each experiment. […]
Morphometry: Morphometric data was acquired using IPLab Software. […] For adult mouse cardiac myocytes, the maximum lengths perpendicular (width) or parallel (length) to the myofibrils were measured for >100 freshly dissociated myocytes per heart.

NHE1 = conditions: Cuello 2007; cited from earlier work
RSK = RSK activation in neonatal rat ventricular myocytes (pan-RSK S218 phospho-specific antibody); assay type: cell-based; conditions: α-adrenergic stimulation, MEK1/2- and MEK5-dependent
Source text: RSK family members can be activated in most cell types by ERK, but not c-Jun N-terminal kinases or p38 (Anjum 2008). ERK phosphorylation is permissive for PDK1 phosphorylation of the RSK N-terminal kinase domain, such that PDK1 phosphorylation of RSK S^218 is indicative of full activation of the enzyme (FIG. 4A of U.S. Pat. No. 9,132,174). […] The α-adrenergic stimulation with phenylephrine (PE) induced RSK phosphorylation 3-fold by both MEK1/2-dependent (that activates ERK1/2) and MEK5-dependent (that activates ERK5) mechanisms (FIG. 22 of U.S. Pat. No. 9,132,174).

RSK3 and mAKAPβ = experiment: Co-immunoprecipitation of endogenous RSK3 with mAKAPβ in neonatal myocytes; assay type: cell-based, rat; conditions: expressed in neonatal myocytes
Protocol: Immunoprecipitations: HEK293 and COS-7 cells were transfected with Lipofectamine 2000 (Invitrogen) or Polyethylenimine “Max” (Polysciences). Cells (including myocytes) were lysed in buffer (20 mmol/L HEPES, pH 7.4, 150 mmol/L NaCl, 5 mmol/L EDTA, 0.5% Triton, 50 mmol/L NaF, 1 mmol/L sodium orthovanadate, 1 mmol/L DTT, and protease inhibitors). After centrifugation at 10,000×g for 10 minutes at 4° C., the clarified extracts were used for immunoprecipitation using appropriate antibodies (10 μg purified antibody or 1-5 μL whole serum) and 20 μL protein G sepharose (Millipore, Fastflow) for 3 hours to overnight at 4° C. The beads were washed 3-5 times with lysis buffer, and the immunoprecipitated proteins were eluted with 1× Laemmli buffer for western blotting. Western blots were developed using horseradish peroxidase-conjugated donkey secondary antibodies, Supersignal West Chemiluminescent Substrates (Thermo Scientific) and X-ray film or a Fujifilm LAS-3000 imaging system.
B. Transfected myocytes expressing GFP or GFP-RBD (green) were stained with α-actinin (blue) and ANF (red) antibodies. Bar=20 μm. C. Cross-section area of myocytes. n=5. D. Fraction of myocytes expressing ANF. n=3. * p-values comparing to GFP-expressing samples. † p-values comparing to no agonist control.

wildtype mice = experiment: Transverse aortic constriction (2 week TAC) after AAV9 injection; assay type: in vivo, mouse; conditions: AAV9 injected into neonatal mice, 2 week TAC at 8 weeks of age
Source text: Transverse Aortic Constriction: All tools were sterilized with a Germinator 500 Dry Sterilizer and Betadine Solution (10% povidone-iodine topical solution). Anesthesia was induced with 5% isoflurane and maintained with 2% isoflurane and 100% oxygen at a flow rate of 1.5 L/min using a SurgiVet flow regulator via nose cone. Loss of consciousness was verified by toe pinch. Mouse fur over the left chest and sternum was removed with a calcium hydroxide lotion (e.g. Nair), and the surgical site was sterilized with betadine. The skin was incised exposing the pectoralis muscle and the second left intercostal space. […] The lobes of the thymus were retracted to reveal the transverse aortic arch as well as the right innominate and left common carotid arteries. […]
Echocardiography: Mice minimally anesthetized with 1-2% isoflurane were studied using a Vevo 770®, High-Resolution Imaging System (VisualSonics). The pressure gradient following TAC was calculated from the pulse wave Doppler velocity at the point of ligation as follows: P=4v^2; P=the induced pressure gradient (in mmHg) and v=the velocity across the constriction (in m/s).^7
AAV9 containing the indicated CIS plasmid encoding myc-GFP-mAKAP 1694-1833 were injected into neonatal wildtype mice. 2 week TAC was performed and analyzed as above at 8 weeks of age. […]

In the case of O=C(NOC[C@H](O)CO)c1ccc(F)c(F)c1Nc1ccc(I)cc1F [PD0325901], the “progression of cardiac hypertrophy cardiomyopathy and other Noonan characteristics” value [1] is given as “attenuated progression”.

With CC(C)CCN1c2nc(Nc3cc(F)c(O)c(F)c3)ncc2N(C)C(=O)C1C (centres unmarked) [BI-D1870] the agonist-induced myocyte hypertrophy [2] was “inhibited”.

With CC(=O)OC1C(C)OC(Oc2c(-c3ccc(O)cc3)oc3cc(O)cc(O)c3c2=O)C(O)C1OC(C)=O (centres unmarked) [SL0101] the agonist-induced myocyte hypertrophy [2] was “inhibited”.

In the case of Cc1ccc(-c2c(C(=O)CF)n(CCCO)c3ncnc(N)c23)cc1 [fmk], the “α-adrenergic-induced NHE1 phosphorylation” value (NHE1) is given as “blocked”.

With CNC[C@H](O)c1cccc(O)c1 [phenylephrine] the RSK phosphorylation induced (RSK) was 3 fold.

B1: green fluorescent protein—mAKAP RBD fusion protein: GFP fused to the mAKAP RSK3 binding domain (mAKAP residues 1694 to 1833), an anchoring disruptor (protein)
chain: ELSLCSEDIVLHKNKIPESNASFRKRLNRSVADESDVNVSMIVNVSCTSACTDDEDDSDLLSSSTLTLTEEELCLKDEDDDSSIATDDEIYEESNLMSGLDYIKNELQTWIRPKLSLTREKKRSGVTDEIKVNKDGGGNE
modifications: left off: small tags and cut ends; large carriers
With B1 the PE-induced hypertrophy ([2]; expressed in neonatal myocytes, phenylephrine) was “markedly inhibited” and the “association of endogenous RSK3 and mAKAPβ” value (RSK3 and mAKAPβ) was “competed the association”.

B2: myc-GFP-mAKAP 1694-1833: myc-GFP-tagged mAKAP 1694-1833 expressed in vivo from AAV9 (protein)
chain: ELSLCSEDIVLHKNKIPESNASFRKRLNRSVADESDVNVSMIVNVSCTSACTDDEDDSDLLSSSTLTLTEEELCLKDEDDDSSIATDDEIYEESNLMSGLDYIKNELQTWIRPKLSLTREKKRSGVTDEIKVNKDGGGNE
modifications: left off: small tags and cut ends; large carriers
notes: myc-GFP-tagged mAKAP 1694-1833 expressed in vivo from AAV9
In the case of B2, the “concentric hypertrophy in vivo in the adult heart” value (wildtype mice) is reported as “inhibited concentric hypertrophy”.
